These molecules were tested against T1, 12-lipoxygenase (Sus scrofa, UniProt P16469) (assay: Inhibition of 12-lipoxygenase activity by aryl aliphatic acids (porcine leukocyte cytosol, conversion of [1-14C] arachidonic acid to 12-HETE)). Settings: porcine leukocyte cytosol 0.075 mg/ml protein; 0.1 M HEPES, pH 8.0; 5 min preincubation, 15 min at 37° C.; arachidonic acid given as 5 mM.
T1 construct: porcine leukocyte cytosol containing 12-lipoxygenase; from tissue; host or cells: porcine leukocyte cytosol
T1 sequence (P16469 1-663): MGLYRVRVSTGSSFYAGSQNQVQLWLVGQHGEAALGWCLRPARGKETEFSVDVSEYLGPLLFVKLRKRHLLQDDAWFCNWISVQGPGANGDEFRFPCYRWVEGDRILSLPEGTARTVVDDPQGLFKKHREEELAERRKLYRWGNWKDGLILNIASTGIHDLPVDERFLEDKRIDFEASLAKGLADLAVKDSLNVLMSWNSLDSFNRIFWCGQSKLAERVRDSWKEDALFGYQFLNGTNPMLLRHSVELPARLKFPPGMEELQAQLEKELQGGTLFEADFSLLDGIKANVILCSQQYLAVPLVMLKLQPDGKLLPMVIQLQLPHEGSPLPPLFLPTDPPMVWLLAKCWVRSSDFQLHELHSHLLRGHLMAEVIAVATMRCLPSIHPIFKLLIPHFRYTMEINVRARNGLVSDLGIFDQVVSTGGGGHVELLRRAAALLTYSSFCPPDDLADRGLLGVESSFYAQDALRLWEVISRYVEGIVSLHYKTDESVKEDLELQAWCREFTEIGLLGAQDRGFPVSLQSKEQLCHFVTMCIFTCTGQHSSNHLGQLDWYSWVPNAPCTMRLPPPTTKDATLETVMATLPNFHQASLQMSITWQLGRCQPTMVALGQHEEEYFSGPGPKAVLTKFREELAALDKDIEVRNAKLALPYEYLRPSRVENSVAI
Assay type: biochemical
Experimental: The standard assay procedure is as follows: […] [1^-14 C] Arachidonic acid was added (final concentration of […]) and the reactions were incubated for 15 minutes at 37° C. and terminated by the addition of HCl. […] Samples were extracted with water-saturated ethyl acetate and the extracts were spotted onto TLC plates. The plates were developed with dichloromethane/ethyl acetate/acetic acid in a ratio of 70:30:1. […] The percentage conversion to 12-HETE was calculated from the percentage of the total ^14 C on the TLC plate that coelutes with a standard of 12-HETE.

Row | SMILES | IC50 [µM]
1 | CCCCCCC#CCOCc1ccc(CCC(=O)O)cc1 [Compound 25, 3-[4-(2-Nonynyloxymethyl)phenyl]propanoic Acid] | 2
2 | CCCCCCCCCCc1ccc(COCc2ccc(CCC(=O)O)cc2)cc1 [Compound 30, 3-[4-[4-(Decylphenylmethyl)oxymethyl]phenyl]propanoic Acid] | 5
3 | CCCCCCCCCC/C=C\COCc1ccc(CCC(=O)O)cc1 [Compound 31, cis-3-[4-(2-Tridecenyloxymethyl)-phenyl]propanoic Acid] | 1
4 | CCCCCCCCCCC=C=CCOCc1ccc(CCC(=O)O)cc1 [Compound 35, (R)-3-[4-(2,3-Tetradecadienyloxymethyl)] | 0.45

These reach a lower IC50. Values come first.

Row | IC50 [µM] | SMILES
5 | 0.4 | CCCCCCCCCC/C=C/COCc1ccc(CCC(=O)O)cc1 [Compound 32, trans-3-[4-(2-Tridecenyloxymethyl)phenyl]propanoic Acid]
6 | 0.32 | CCCCCCCCCCCCC#CCOCc1ccc(CCC(=O)O)cc1 [Compound 27, 3-[4-(2-Pentadecynyloxymethyl)phenyl]propanoic Acid]
7 | 0.28 | CCCCCCCCCCC=C=CCOCc1ccc(CCC(=O)O)cc1 [Compound 34, (S)-(+)-3-[4-(2,3-Tetradecadienyloxymethyl)phenyl]propanoic Acid]
8 | 0.1 | CCCCCCCCC#CCOCc1ccc(CCC(=O)O)cc1 [Compound 26, 3-[4-(2-Undecynyloxymethyl)phenyl]propanoic Acid]
9 | 0.035 | CCCCCCCCCCC#CCOCc1ccc(CCC(=O)O)cc1 [Compound 24, 3-[4-(2-Tridecynyloxymethyl)phenyl]propanoic Acid]
